Article PMC12848038, “O-GlcNAc and phosphorylation modifications on HtL1/FBA10 regulate wheat vernalization for flowering” (Nature Communications, 2025)

Biological target: T1, HtL1/FBA10 (HtL1-GST) (Triticum aestivum, UniProt A0A1D5VE13)
T1 construct: gene LOC123071650; class I aldolase, homotetramer only predicted (SWISS-MODEL); cytosolic
T1 sequence (A0A1D5VE13 1-358): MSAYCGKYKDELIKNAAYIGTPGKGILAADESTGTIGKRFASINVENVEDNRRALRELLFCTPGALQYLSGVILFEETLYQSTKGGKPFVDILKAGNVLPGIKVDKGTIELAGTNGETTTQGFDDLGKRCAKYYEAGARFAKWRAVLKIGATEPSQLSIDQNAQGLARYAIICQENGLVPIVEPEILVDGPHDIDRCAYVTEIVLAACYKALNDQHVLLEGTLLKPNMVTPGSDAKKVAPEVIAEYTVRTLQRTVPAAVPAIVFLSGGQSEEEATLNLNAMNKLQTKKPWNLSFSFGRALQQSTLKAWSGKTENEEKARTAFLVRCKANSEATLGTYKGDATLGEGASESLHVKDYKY
Test: fructose-1,6-bisphosphate aldolase activity assay kit, microplate reader; enzyme kinetic curve
Type: biochemical
Conditions: GST fusion protein; no constant in text; kinetic curve only in figure

For `O=P(O)(O)OC[C@H]1OC(O)(COP(=O)(O)O)[C@@H](O)[C@@H]1O` (stereo partly shown) [FBP, fructose 1,6-bisphosphate], the “fructose-1,6-bisphosphate aldolase activity assay kit, microplate reader; enzyme” value was “Enzyme kinetic curves and activity assays collectively demonstrated that HtL1 exhibits fructose-bisphosphate aldolase activity”.
